The record followed here is US11351142B2, “Composition and method for treating neuronal ceroid lipofuscinosis” (Rush University Medical Center, priority 2012, dated 2022).

Experiment [1] deals with TPP1. In words: Western blot and densitometric analysis of TPP1 in mouse primary astrocytes. The format is cell-based. As for the experimental part:
Astroglia were isolated from mixed glial cultures as described (17,18) according to the procedure of Giulian and Baker (19). Briefly, on day 9, the mixed glial cultures were washed three times with Dulbecco's modified Eagle's medium/F-12 and subjected to shaking at 240 rpm for 2 h at 37° C. on a rotary shaker to remove microglia. After 2 days, the shaking was repeated for 24 h for the removal of oligodendroglia and to ensure the complete removal of all nonastroglial cells. The attached cells were seeded onto new plates for further studies.
Western blotting was conducted as described earlier (27,28) with modifications. Briefly, cells were scraped in double-distilled H20 and sodium dodecyl sulfate (SDS), electrophoresed on NuPAGE® Novex® 4-12% Bis-Tris gels (Invitrogen) and proteins transferred onto a nitrocellulose membrane (Bio-Rad) using the Thermo-Pierce Fast Semi-Dry Blotter. The membrane was then washed for 15 min in TBS plus Tween 20 (TBST) and blocked for 1 hr in TBST containing BSA. Next, membranes were incubated overnight at 4° C. under shaking conditions with the following 1° antibodies; TPP1 (1:250, Santa Cruz), β-actin (1:800; Abcam, Cambridge, Mass. The next day, membranes were washed in TBST for 1 hr, incubated in 2° antibodies against 1° antibody hosts (all 1:10,000; Jackson ImmunoResearch) for 1 hr at room temperature, washed for one more hour and visualized under the Odyssey® Infrared Imaging System (Li-COR, Lincoln, Nebr.).
Protein blots were analyzed using ImageJ (NIH, Bethesda, Md.) and bands were normalized to their respective β-actin loading controls. Data are representative of the average fold change with respect to control for three independent experiments.

The test system of another experiment is primary human neurons. The experiment can be described thus: LysoTracker labeling of lysosomes in primary human neurons. The format is cell-based. Conditions: 25 μM gemfibrozil and 10 μM fenofibrate, 24 hours. The text has this: (§1) DAPI was used to visualize nuclei. Results represent 3 independent experiments.
Experiment [2] deals with TPP1. The experiment can be described thus: Immunofluorescence for TPP1 in human primary astrocytes. It counts as cell-based. Conditions: 25 μM gemfibrozil and 10 μM fenofibrate, 24 hrs. As for the experimental part: Following four 15 minute washes with filtered PBS, cells were incubated for 4-5 min with 4′, 6-diamidino-2-phenylindole (DAPI, 1:10,000; Sigma).
For another experiment, the system named is CLN2 (−/−) mice. In words: Motor activity monitoring of CLN2 (−/−) mice. It counts as in vivo, mouse. The settings on record: after 2 weeks and 6 weeks of gemfibrozil treatment. As for the experimental part: Each animal was allowed 5 mins of adaptation time followed by monitoring for 5 min. *p-value<0.05. n=15 (untreated), n=20 (treated)
Experiment [3] deals with lysosomal genes. The experiment can be described thus: RT-PCR for lysosomal genes in human astrocytes. Conditions: 25 μM gemfibrozil, serum free. The format is cell-based.
Experimental: (§2) (FIG. 13A) Quantitative real-time PCR for lysosomal genes in mouse astrocytes treated with 25 μM gemfibrozil for different time points under serum free conditions. […] (FIG. 13B) RT-PCR for lysosomal genes in human astrocytes treated under same condition. […] Results represent 3 independent experiments.
For experiment [4], the system named is lysosome-associated membrane protein 2 (LAMP2). The experiment can be described thus: Double-labeling for LAMP2 and β-tubulin in human neurons. The settings on record: 25 μM gemfibrozil and 10 μM fenofibrate, 24 hours. The format is cell-based.
Text: as §1

Experiment [5] deals with lysosomal genes. In words: Quantitative real-time PCR for lysosomal genes in mouse astrocytes. The settings on record: 25 μM gemfibrozil, different time points, serum free. The format is cell-based.
Experimental: as §2
The next experiment deals with T1, PPARα/RXRα heterodimer (Mus musculus, UniProt P23204+P28700).
T1 construct: endogenous in cells; host or cells: mouse primary astrocytes (nuclear extract)
T1 sequence (P23204 1-468): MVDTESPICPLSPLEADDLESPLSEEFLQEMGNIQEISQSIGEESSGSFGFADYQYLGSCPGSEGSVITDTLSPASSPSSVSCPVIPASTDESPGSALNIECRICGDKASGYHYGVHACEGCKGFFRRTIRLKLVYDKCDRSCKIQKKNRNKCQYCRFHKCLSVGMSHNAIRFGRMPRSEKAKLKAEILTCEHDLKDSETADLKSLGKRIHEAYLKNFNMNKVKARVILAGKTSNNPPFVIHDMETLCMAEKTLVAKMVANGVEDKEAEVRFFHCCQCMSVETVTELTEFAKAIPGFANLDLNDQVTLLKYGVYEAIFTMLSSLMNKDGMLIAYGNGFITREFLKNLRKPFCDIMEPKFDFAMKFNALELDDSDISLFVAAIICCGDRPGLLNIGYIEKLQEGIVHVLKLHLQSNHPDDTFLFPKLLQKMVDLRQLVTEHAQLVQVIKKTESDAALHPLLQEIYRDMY
T1 sequence (P28700 1-467): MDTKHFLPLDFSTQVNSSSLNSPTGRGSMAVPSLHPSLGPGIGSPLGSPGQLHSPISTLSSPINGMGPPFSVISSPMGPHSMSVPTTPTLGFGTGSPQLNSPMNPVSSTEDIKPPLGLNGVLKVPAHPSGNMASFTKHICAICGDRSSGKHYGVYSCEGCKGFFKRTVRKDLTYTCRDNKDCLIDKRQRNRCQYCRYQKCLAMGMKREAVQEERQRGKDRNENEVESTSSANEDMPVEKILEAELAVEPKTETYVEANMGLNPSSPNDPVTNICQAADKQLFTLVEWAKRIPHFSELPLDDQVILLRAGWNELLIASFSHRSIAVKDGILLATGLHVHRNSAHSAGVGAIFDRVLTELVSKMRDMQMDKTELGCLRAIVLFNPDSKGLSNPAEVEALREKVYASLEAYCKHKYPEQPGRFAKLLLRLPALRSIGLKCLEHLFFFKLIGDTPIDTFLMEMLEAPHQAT
In words: Co-immunoprecipitation of PPARα and RXRα from nuclear extract of mouse astrocytes. It counts as cell-based. Conditions: gemfibrozil (10 μM) and RA (0.5 μM) alone and in combination, 6 hrs.

Experiment [6] concerns CLN2 knockdown mouse astrocytes. In words: Peroxide assay in CLN2 knockdown mouse astrocytes. It counts as cell-based. Conditions: astrocytes transfected with CLN2 siRNA 36 hrs, gemfibrozil (25 μM) 6 hrs. The protocol: Mouse astrocytes were transfected with CLN2 siRNA (1.0 μg) for 36 hrs and treated with gemfibrozil (25 μM) for 6 hrs. Cells were then harvested and subjected to peroxide assay.

Experiment [7] relates to TPP1. In words: TPP1 immunofluorescence of brain sections after oral gemfibrozil in WT, PPARα−/− and PPARβ−/− mice. Conditions: oral 7.5 mg/kg body wt/day, 21 days. It counts as in vivo, mouse. An excerpt:
After 21 days of treatment, mice were sacrificed and their brains fixed, embedded, and processed. Sections were made from different brain regions and for immunofluorescence staining on fresh frozen sections, anti-mouse TPP1 (1:200), goat anti mouse GFAP (1:100) were used. The samples were mounted and observed under Olympus BX41 fluorescence microscope (26).
Once we confirmed the involvement of PPARα in the fibrate mediated upregulation of TPP1 protein, we further checked whether the same results could be replicated in in vivo settings. WT, PPARα^−/− and PPARβ^−/− mice from same background were treated orally for 21 days with 7.5 mg/kg body wt/day gemfibrozil dissolved in 0.1% methylcellulose, which was also used as vehicle. At the end of the treatment, the mice were killed and different regions of their brain, viz. Substantia nigra pars compacta, cortex, hippocampus, and dentate gyrus were sectioned, and immunofluorescence was performed for the presence of TPP1.

Experimental for PPARα/RXRα heterodimer: After treatment, cells were washed with PBS, scraped into 1.5 mL tubes and centrifuged in 4° C. for 5 min at 500 rpm. The supernatant was aspirated and the pellet was resuspended in a membrane lysis buffer comprised of (4-(2-hydroxyethyl)-1-piperazineethanesulfonic acid) (HEPES, pH 8.0), MgCl2, KCl, dithiothreitol (DTT) and protease/phosphatase inhibitors, vortexed and centrifuged in 4° C. at 15,000 rpm for 3 minutes. Again, the supernatant was aspirated and the pellet was resuspended in a high salt, nuclear envelope lysis buffer comprised of HEPES (pH 8.0), MgCl2, glycerol, NaCl, ethylenediaminetetraacetic acid (EDTA), DTT and protease/phosphatase inhibitors, rotated vigorously in 4° C. for 30 min and centrifuged in 4° C. at 15,000 rpm for 15 minutes. The resultant nuclear pellet was resuspended in IP buffer and a fraction was kept separately as lysate. The remaining nuclear extract was then precleared with 25 ul of protein A-agarose (50%, v/v). The supernatants were immunoprecipitated with 5 ug of anti-RXRα or anti-PPARα or normal IgG (Santa Cruz Biotechnology, Inc.) overnight at 4 C, followed by incubation with protein A-agarose for 4 hrs at 4° C. Protein A-agarose-antigen-antibody complexes were collected by centrifugation at 12,000 rpm for 60 s at 4° C. […]

In the case of `Cc1ccc(C)c(OCCCC(C)(C)C(=O)O)c1` [gemfibrozil], the “TPP1 levels (immunoblot, densitometric analysis)” value in the experiment with TPP1 [1] (PPARα−/− astrocytes, 24 hrs) was “no significant increase”. Further, in the experiment on TPP1 [1] (RXRα siRNA transfected astrocytes, gemfibrozil (10 μM), RA (0.5 μM) alone and in combination), the “TPP1 levels (Western blot, densitometric analysis)” value is “almost no enhancement”. Also, the “lysosomal proliferation (LysoTracker)” value with primary human neurons is “upregulation”. Further, the “level of TPP1 protein (immunofluorescence)” value in the experiment on TPP1 [2] is “considerable increase”. Also, in the experiment with CLN2 (−/−) mice, the motor activity parameters entry is on record as “delays the loss of motor activity”. Besides, the “lysosomal genes mRNA (RT-PCR)” value with lysosomal genes [3] is on record as “upregulation”. Further, the “LAMP2 (double-labeling)” value in experiment [4] is “upregulation”. For the same molecule, the “lysosomal genes mRNA (quantitative real-time PCR)” value in the experiment on lysosomal genes [5] is given as “upregulation”. On PPARα/RXRα heterodimer, the “PPARα in immunoblot after immunoprecipitation with RXR Ab” value was “increased abundance of PPARα” and the “RXR in immunoblot after immunoprecipitation with PPARα Ab, treated vs control” value is “increased presence of RXR”. Further, the peroxide production result in experiment [6] is “reduces peroxide production”. Besides, in the experiment on TPP1 [7] (PPARβ−/− mice), the “TPP1 in the dentate gyrus and CA1 region of the hippocampus (mostly non-neuronal cells)” value is on record as “increased”; the “level of TPP1 in GFAP-positive astrocytes and tyrosine hydroxylase-positive neurons in the substantia nigra” value is on record as “increased”; the “level of TPP1 in GFAP-positive cortical astrocytes and NeuN-positive cortical neurons” value is “markedly increased”. In the experiment with TPP1 [7] (WT mice), the “TPP1 in the dentate gyrus and CA1 region of the hippocampus (mostly non-neuronal cells)” value is “increased”; the “level of TPP1 in GFAP-positive astrocytes and tyrosine hydroxylase-positive neurons in the substantia nigra” value is reported as “increased”; the “level of TPP1 in GFAP-positive cortical astrocytes and NeuN-positive cortical neurons” value is on record as “markedly increased”.
